According to patent US12371428B2 (Exelixis, Inc., priority 2019, dated 2025):
Where a name gives a salt, the structure may show the parent alone.

How the values were obtained:
[1] = target: Human MER (residues 528-999) (Homo sapiens (Human), UniProt Q12866); assay: Human Mer kinase assay, HTRF KinEase (Example C-2); format: biochemical; conditions: protocol of Example C-2 (other compounds)
Procedure, shortened: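 IC50 values from 10 concentrations via 4-parameter logistic fit of […], with DMSO as 100% and 1 μM reference compound as 0% activity. Reaction: MER kinase domain 528-999, 1 ng/well, 40 μM ATP (Km), biotin peptide, 5 mM MgCl2, 1 mM DTT, 3% DMSO, room temperature 60 min; HTRF streptavidin-XL665/Eu-antibody detection.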

[2] = target: Human MET (residues 956-1390) (Homo sapiens (Human), UniProt P08581); assay: Human Met kinase assay, HTRF KinEase (Example D-2); format: biochemical; conditions: protocol of Example D-2 (other compounds); read-out: c-Met IC50
Sequence of Human MET (residues 956-1390) (P08581 956-1390): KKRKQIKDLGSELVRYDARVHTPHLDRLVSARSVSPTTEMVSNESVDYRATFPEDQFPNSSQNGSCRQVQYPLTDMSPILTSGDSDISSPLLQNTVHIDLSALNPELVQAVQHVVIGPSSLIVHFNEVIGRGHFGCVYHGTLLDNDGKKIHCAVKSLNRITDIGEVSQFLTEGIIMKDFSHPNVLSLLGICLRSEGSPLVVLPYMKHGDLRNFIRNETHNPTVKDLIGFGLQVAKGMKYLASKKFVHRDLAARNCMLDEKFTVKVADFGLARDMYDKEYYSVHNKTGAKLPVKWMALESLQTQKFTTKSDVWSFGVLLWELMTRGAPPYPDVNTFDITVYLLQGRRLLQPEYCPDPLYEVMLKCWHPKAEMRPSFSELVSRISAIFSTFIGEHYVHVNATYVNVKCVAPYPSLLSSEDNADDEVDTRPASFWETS
Procedure, shortened: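 IC50 values come from a 4-parameter logistic fit of the […] fluorescence ratio, set between DMSO (100%) and reference compound at 1 μM (0%). Reactions held MET 956-1390 at 0.1 ng/well, ATP at Km, biotinylated peptide, 5 mM MgCl2, 1 mM MnCl2, 1 mM DTT and 3% DMSO, and ran 40 min at room temperature before streptavidin-XL665/Eu-antibody detection.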

[3] = target: KDR (phospho-KDR, VEGF165-stimulated HUVEC cells) (Homo sapiens (Human), UniProt P35968); assay: KDR autophosphorylation ELISA in HUVEC cells (Example G); format: cell-based; conditions: cellular activity; KDR autophosphorylation ELISA in HUVEC cells
Sequence of KDR (phospho-KDR, VEGF165-stimulated HUVEC cells) (P35968 20-1356): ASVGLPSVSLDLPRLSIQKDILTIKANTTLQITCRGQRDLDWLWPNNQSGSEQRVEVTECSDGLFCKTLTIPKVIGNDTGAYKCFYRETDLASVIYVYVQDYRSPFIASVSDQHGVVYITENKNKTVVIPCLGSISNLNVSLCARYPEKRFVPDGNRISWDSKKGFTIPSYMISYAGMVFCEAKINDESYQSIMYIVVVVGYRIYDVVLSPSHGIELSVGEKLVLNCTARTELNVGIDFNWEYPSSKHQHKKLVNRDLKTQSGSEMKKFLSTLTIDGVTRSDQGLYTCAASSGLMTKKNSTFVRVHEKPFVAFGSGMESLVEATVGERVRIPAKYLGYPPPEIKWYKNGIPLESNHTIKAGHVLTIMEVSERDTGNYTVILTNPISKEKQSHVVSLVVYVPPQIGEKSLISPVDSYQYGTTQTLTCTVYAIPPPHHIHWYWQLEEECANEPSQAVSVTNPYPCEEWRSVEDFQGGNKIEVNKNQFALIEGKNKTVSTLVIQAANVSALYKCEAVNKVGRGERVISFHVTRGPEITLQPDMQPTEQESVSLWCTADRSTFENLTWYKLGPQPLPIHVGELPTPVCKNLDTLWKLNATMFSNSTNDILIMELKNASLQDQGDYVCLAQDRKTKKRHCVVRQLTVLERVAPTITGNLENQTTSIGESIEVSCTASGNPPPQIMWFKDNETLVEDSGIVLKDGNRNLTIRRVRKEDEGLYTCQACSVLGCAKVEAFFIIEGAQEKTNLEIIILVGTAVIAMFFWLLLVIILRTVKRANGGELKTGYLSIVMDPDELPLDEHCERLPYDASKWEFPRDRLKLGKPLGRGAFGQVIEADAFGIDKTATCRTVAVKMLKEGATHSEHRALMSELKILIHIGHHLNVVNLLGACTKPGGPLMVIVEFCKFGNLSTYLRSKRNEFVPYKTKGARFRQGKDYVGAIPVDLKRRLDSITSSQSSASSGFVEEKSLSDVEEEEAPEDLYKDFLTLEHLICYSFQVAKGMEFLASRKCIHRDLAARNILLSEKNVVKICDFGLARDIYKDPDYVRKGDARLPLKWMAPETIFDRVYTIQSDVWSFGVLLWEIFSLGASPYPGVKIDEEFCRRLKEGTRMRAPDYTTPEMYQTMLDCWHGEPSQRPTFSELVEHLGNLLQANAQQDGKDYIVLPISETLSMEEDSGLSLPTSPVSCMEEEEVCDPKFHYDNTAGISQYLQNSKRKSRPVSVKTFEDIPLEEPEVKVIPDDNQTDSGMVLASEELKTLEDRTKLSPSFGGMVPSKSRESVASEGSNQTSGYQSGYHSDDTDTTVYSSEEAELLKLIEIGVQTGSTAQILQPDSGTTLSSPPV
Procedure, shortened: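 HUVECs were serum-starved 24 h, given compound as an 8-point dilution series (0.3% DMSO final) for 1 h, then stimulated with 100 ng/mL VEGF165 for 5 min. Lysate phospho-KDR was quantified by sandwich ELISA against a phospho-KDR standard, and IC50s came from a 4-parameter logistic fit.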

Sequence of Human MER (residues 528-999) (Q12866 528-999): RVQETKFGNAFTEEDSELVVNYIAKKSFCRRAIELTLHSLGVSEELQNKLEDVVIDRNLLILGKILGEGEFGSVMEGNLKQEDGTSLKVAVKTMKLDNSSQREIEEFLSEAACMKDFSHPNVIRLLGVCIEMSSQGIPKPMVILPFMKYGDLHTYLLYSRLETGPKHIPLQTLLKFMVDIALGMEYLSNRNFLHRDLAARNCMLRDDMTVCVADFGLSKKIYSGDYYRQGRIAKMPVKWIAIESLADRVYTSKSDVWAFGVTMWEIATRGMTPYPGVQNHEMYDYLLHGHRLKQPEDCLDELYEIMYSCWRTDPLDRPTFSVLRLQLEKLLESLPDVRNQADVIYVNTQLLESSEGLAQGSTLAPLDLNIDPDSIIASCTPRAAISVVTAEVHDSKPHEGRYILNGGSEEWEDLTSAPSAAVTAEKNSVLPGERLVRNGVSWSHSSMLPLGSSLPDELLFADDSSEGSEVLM

Row | IC50 [1] [nM] | IC50 [2] [nM] | IC50 [3] [nM] | Structure (SMILES)
1 | < 100 | < 100 | < 100 | CCc1nc(C)c(-c2ccc(F)cc2C)c(O)c1C(=O)Nc1ccc(Oc2ccnc3cc(OC)cnc23)cc1 [Compound 205, 2-Ethyl-5-(4-fluoro-2-methylphenyl)-4-hydroxy-N-[4-[(7-methoxy-1,5-naphthyridin-4-yl)oxy]phenyl]-6-methylpyridine-3-carboxamide]
2 | < 100 | < 100 | < 100 | COc1cnc2c(Oc3ccc(NC(=O)c4nnc(C)c(-c5ccc(F)cc5C)c4O)cc3F)ccnc2c1 (single isomer, unassigned) [Compound 249C, N-[3-Fluoro-4-[(7-methoxy-1,5-naphthyridin-4-yl)oxy]phenyl]-5-(4-fluoro-2-methylphenyl)-4-hydroxy-6-methylpyridazine-3-carboxamide]
3 | < 100 | < 100 | 100 to 300 | COc1cc2nccc(Oc3ccc(NC(=O)c4cn(C)c(C)c(-c5cccc(F)c5)c4=O)cc3F)c2nc1OC [Compound 37, N-[4-[(6,7-Dimethoxy-1,5-naphthyridin-4-yl)oxy]-3-fluorophenyl]-5-(3-fluorophenyl)-1,6-dimethyl-4-oxopyridine-3-carboxamide hydrochloride]
4 | < 100 | 100 to 300 | 100 to 300 | COc1cc2nccc(Oc3ccc(NC(=O)c4cn(CC(F)(F)F)c(C)c(-c5ccc(F)cc5)c4=O)cc3F)c2cc1OC [Compound 259, N-[4-(6,7-Dimethoxyquinolin-4-yl)oxy-3-fluorophenyl]-5-(4-fluorophenyl)-6-methyl-4-oxo-1-(2,2,2-trifluoroethyl)pyridine-3-carboxamide]
5 | < 100 | < 100 | < 100 | COc1cnc2c(Oc3ccc(NC(=O)c4n[nH]c(C)c(-c5ccc(F)cc5)c4=O)cc3F)ccnc2c1 [Compound 246, N-[3-Fluoro-4-[(7-methoxy-1,5-naphthyridin-4-yl)oxy]phenyl]-5-(4-fluorophenyl)-6-methyl-4-oxo-1H-pyridazine-3-carboxamide]
6 | < 100 | < 100 | 100 to 300 | COc1cnc2c(Oc3ccc(NC(=O)c4c(C)nc(C)n(-c5ccc(F)cc5)c4=O)cc3)ccnc2c1 [Compound 258, 1-(4-Fluorophenyl)-N-[4-[(7-methoxy-1,5-naphthyridin-4-yl)oxy]phenyl]-2,4-dimethyl-6-oxopyrimidine-5-carboxamide]
7 | < 100 | < 100 | < 100 | COc1cc2nccc(Oc3ccc(NC(=O)c4n[nH]c(C)c(-c5ccc(F)cc5C)c4=O)cc3)c2nc1OC [Compound 247, N-[4-[(6,7-Dimethoxy-1,5-naphthyridin-4-yl)oxy]phenyl]-5-(4-fluoro-2-methylphenyl)-6-methyl-4-oxo-1H-pyridazine-3-carboxamide]
8 | < 100 | < 100 | < 100 | COCCOc1nc2c(Oc3ccc(NC(=O)c4cn(C)c(C)c(-c5ccc(F)cc5)c4=O)cc3F)ccnc2cc1OC [Compound 198, N-[3-Fluoro-4-[[7-methoxy-6-(2-methoxyethoxy)-1,5-naphthyridin-4-yl]oxy]phenyl]-5-(4-fluorophenyl)-1,6-dimethyl-4-oxopyridine-3-carboxamide]
9 | < 100 | 100 to 300 | < 100 | CCc1nc(C)c(-c2ccc(F)cc2C)c(O)c1C(=O)Nc1ccc(Oc2ccnc3cc(OC)c(OC)nc23)c(F)c1 [Compound 202, N-[4-[(6,7-Dimethoxy-1,5-naphthyridin-4-yl)oxy]-3-fluorophenyl]-2-ethyl-5-(4-fluoro-2-methylphenyl)-4-hydroxy-6-methylpyridine-3-carboxamide]
10 | < 100 | < 100 | < 100 | COCc1nc(C)c(-c2ccc(F)cc2)c(O)c1C(=O)Nc1ccc(Oc2ccnc3cc(OC)cnc23)c(F)c1 [Compound 186, N-[3-Fluoro-4-[(7-methoxy-1,5-naphthyridin-4-yl)oxy]phenyl]-5-(4-fluorophenyl)-4-hydroxy-2-(methoxymethyl)-6-methylpyridine-3-carboxamide]
11 | < 100 | < 100 | > 300 | COc1ccc2nccc(Oc3ccc(NC(=O)c4cn(C)c(C)c(-c5ccc(F)cc5C)c4=O)cc3F)c2n1 [Compound 183, N-[3-Fluoro-4-[(6-methoxy-1,5-naphthyridin-4-yl)oxy]phenyl]-5-(4-fluoro-2-methylphenyl)-1,6-dimethyl-4-oxopyridine-3-carboxamide]
12 | < 100 | < 100 | < 100 | COCCOc1nc2c(Oc3ccc(NC(=O)c4c(COC)nc(C)c(-c5ccc(F)cc5C)c4O)cc3F)ccnc2cc1OC [Compound 201, N-[3-Fluoro-4-[[7-methoxy-6-(2-methoxyethoxy)-1,5-naphthyridin-4-yl]oxy]phenyl]-5-(4-fluoro-2-methylphenyl)-4-hydroxy-2-(methoxymethyl)-6-methylpyridine-3-carboxamide]
13 | < 100 | < 100 | < 100 | COCc1nc(C)c(-c2ccc(F)cc2C)c(O)c1C(=O)Nc1ccc(Oc2ccnc3cc(OC)c(OC)nc23)cc1 [Compound 192, N-[4-[(6,7-Dimethoxy-1,5-naphthyridin-4-yl)oxy]phenyl]-5-(4-fluoro-2-methylphenyl)-4-hydroxy-2-(methoxymethyl)-6-methylpyridine-3-carboxamide]
14 | < 100 | 100 to 300 | > 300 | COc1cnc2c(Oc3ccc(NC(=O)c4cnc(C(F)(F)F)c(-c5ccc(F)cc5)c4O)cc3F)ccnc2c1 [Compound 241, N-[3-Fluoro-4-[(7-methoxy-1,5-naphthyridin-4-yl)oxy]phenyl]-5-(4-fluorophenyl)-4-hydroxy-6-(trifluoromethyl)pyridine-3-carboxamide]
15 | < 100 | < 100 | < 100 | COc1cnc2c(Oc3ccc(NC(=O)c4cnc(CO)c(-c5ccc(F)cc5)c4O)cc3)ccnc2c1 [Compound 218, 5-(4-Fluorophenyl)-4-hydroxy-6-(hydroxymethyl)-N-[4-[(7-methoxy-1,5-naphthyridin-4-yl)oxy]phenyl]pyridine-3-carboxamide]
16 | < 100 | < 100 | 100 to 300 | COc1ccc2nccc(Oc3ccc(NC(=O)c4cnc(C)n(-c5ccc(F)cc5)c4=O)cc3F)c2n1 [Compound 232, N-[3-Fluoro-4-[(6-methoxy-1,5-naphthyridin-4-yl)oxy]phenyl]-1-(4-fluorophenyl)-2-methyl-6-oxopyrimidine-5-carboxamide]
17 | < 100 | < 100 | < 100 | COCc1nc(C)c(-c2ccc(F)cc2)c(O)c1C(=O)Nc1ccc(Oc2ccnc3cc(OC)c(OC)nc23)c(F)c1 [Compound 184, N-[4-[(6,7-Dimethoxy-1,5-naphthyridin-4-yl)oxy]-3-fluorophenyl]-5-(4-fluorophenyl)-4-hydroxy-2-(methoxymethyl)-6-methylpyridine-3-carboxamide]
18 | < 100 | < 100 | < 100 | COCc1nc(C)c(-c2ccc(F)cc2)c(O)c1C(=O)Nc1ccc(Oc2ccnc3ccc(OC)nc23)c(F)c1 [Compound 189, N-[3-Fluoro-4-[(6-methoxy-1,5-naphthyridin-4-yl)oxy]phenyl]-5-(4-fluorophenyl)-4-hydroxy-2-(methoxymethyl)-6-methylpyridine-3-carboxamide]
